# How the values were obtained:
# [1] = Phenylbenzoquinone test (analgesic activity); format: in vivo; settings: Mus musculus, 1 h; mice; oral, one hour before phenylbenzoquinone i.p.; 5 minutes observation; read-out: Phenylbenzoquinone test 50% inhibitory dose
# Experimental: 2. Phenylbenzoquinone test
# The intraperitoneal injection of phenylbenzoquinone causes twisting and stretching movements in mice. Analgesics prevent or reduce this syndrome, which can be considered as the exteriorization of diffuse abdominal pain.
# A 0.02% solution of phenylbenzoquinone in water is administered in a volume of 1 ml/100 g.
# The products of the Examples are administered orally one hour before the injection of phenylbenzoquinone.
# The stretching and twisting movements are counted for each mouse over an observation period of 5 minutes.
# [2] = biological target: T1, rat central A1 adenosinergic receptors (Rattus norvegicus, UniProt P25099); test: Binding to adenosine A1 receptors ([3H] PIA displacement); settings: [3H] PIA 2.5 nM, n=3; for inhibition at 10 µM: read-out: % displacement of the labeled ligand, A1, 1E-5M; for inhibition at 0.1 µM: read-out: % displacement of the labeled ligand, A1, 1E-7M
# T1 construct: After the animal has been sacrificed by decapitation, the brain is quickly removed and washed in cold isotonic solution; from tissue; host or cells: rat brain, membrane preparation from the two hemispheres
# T1 sequence (P25099 1-326): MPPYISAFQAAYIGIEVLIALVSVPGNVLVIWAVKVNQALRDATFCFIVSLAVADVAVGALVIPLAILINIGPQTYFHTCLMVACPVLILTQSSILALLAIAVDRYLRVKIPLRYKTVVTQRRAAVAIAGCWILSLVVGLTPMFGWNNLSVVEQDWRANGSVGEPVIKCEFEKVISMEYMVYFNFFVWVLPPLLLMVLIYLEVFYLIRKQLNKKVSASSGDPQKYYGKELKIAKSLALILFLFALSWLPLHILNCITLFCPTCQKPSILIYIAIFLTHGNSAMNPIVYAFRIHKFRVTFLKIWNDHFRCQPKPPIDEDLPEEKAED
# Experimental: (§1) The affinity of the products of the Examples for the rat central A1 and A2 adenosinergic receptors is determined by the competitive technique using a radioactive ligand specifically bound either to the A1 receptors ([^3 H] PIA) or to the A2 receptors ([^3 H] NECA).
# After the animal has been sacrificed by decapitation, the brain is quickly removed and washed in cold isotonic solution. The two hemispheres are separated and weighed and each of them is introduced into a polyallomer tube containing 25 volumes of cold homogenization buffer. Homogenization is effected using an Ultra-Turrax for 30 seconds (3 times 10 seconds with 10-second intervals, 70% of the maximum speed). The ground material obtained is centrifuged at 1000 g (≈3000 rpm) for 10 minutes at 4° C.
# The supernatant is centrifuged again at 48,000 g (≈20,000 rpm) for 20 minutes at 4° C.
# When this step is complete, the residue is taken up with 4 volumes of homogenization buffer, resuspended using a Vortex and homogenized with the Ultra-Turrax. Adenosine deaminase is then added at a rate of 1 U/ml, i.e. 1 μl/ml of homogenate, using a 10 μl Hamilton syringe.
# After this treatment, the homogenate is shaken for 30 minutes at room temperature and then centrifuged at […] (≈20,000 rpm) for 30 minutes at 4° C.
# The residue obtained is resuspended in 10 volumes of homogenization buffer and passed through the Ultra-Turrax for 20 seconds (2 times 10 seconds with a 10-second interval, 70% of the maximum speed).
# The homogenate prepared in this way is used for the competitive tests. It is kept at 4° C. if the studies take place the same day, or stored at -20° C. in the form of 10 ml aliquots.
# After the homogenate has been thawed at room temperature, it is passed through a Potter mill (6 manual to-and-fro movements, speed 6), diluted to 2/5 in incubation buffer and placed in a water bath thermostated at 4° C., with shaking, until the end of the experiment.
# (§2) 50 μl of [^3 H] PIA at 100 nM, i.e. 2.5 nM in the final reaction medium allowing for the 1/40 dilution, and 50 μl of the product of the Example at the concentrations considered (10^-1 M and 10^-7 M) are introduced into the reaction tubes. The reaction is initiated by the addition of 1 ml of homogenate and 900 μl of incubation buffer. The procedure is identical for all the beta-blockers studied.
# (§3) The tubes are shaken and incubated in a water bath at 20° C. for 30 minutes. When the incubation is complete, the contents of the tubes are filtered on Whatman GF/B paper. Each tube is washed twice with 2 ml of rinsing buffer and then the filters themselves are rinsed with 3 ml of this same buffer.
# The filters are then transferred to counting flasks and 10 ml of liquid scintillator (Ready Solv HP/b, Beckman) are added.
# After they have been shaken, the flasks are stored in a refrigerator overnight and the radio-activity is then determined in a liquid scintillation counter.
# (§4) 3 tests are performed for each concentration studied. The non-specific binding of the [^3 H] PIA is assessed by measuring the amount of radioactivity retained on the filter in the presence of 10^-5 M phenylisopropyladenosine (PIA). The value of the non-specific binding is systematically subtracted from that of the tests.
# (§5) The results are expressed for each product in the form of the percentage displacement (n=3) of the labeled radioligand at concentrations of 10^-5 M and 10^-7 M.
# [3] = biological target: T2, rat central A2 adenosinergic receptors (Rattus norvegicus, UniProt P30543); test: Binding to adenosine A2 receptors ([3H] NECA displacement); settings: [3H] NECA 4 nM, n=3; for inhibition at 10 µM: read-out: % displacement of the labeled ligand, A2, 1E-5M; for inhibition at 0.1 µM: read-out: % displacement of the labeled ligand, A2, 1E-7M
# T2 construct: the striatum is removed from each of them (Bruns et al., 1986); from tissue; host or cells: rat striatum, homogenate (membrane preparation)
# T2 sequence (P30543 whole entry): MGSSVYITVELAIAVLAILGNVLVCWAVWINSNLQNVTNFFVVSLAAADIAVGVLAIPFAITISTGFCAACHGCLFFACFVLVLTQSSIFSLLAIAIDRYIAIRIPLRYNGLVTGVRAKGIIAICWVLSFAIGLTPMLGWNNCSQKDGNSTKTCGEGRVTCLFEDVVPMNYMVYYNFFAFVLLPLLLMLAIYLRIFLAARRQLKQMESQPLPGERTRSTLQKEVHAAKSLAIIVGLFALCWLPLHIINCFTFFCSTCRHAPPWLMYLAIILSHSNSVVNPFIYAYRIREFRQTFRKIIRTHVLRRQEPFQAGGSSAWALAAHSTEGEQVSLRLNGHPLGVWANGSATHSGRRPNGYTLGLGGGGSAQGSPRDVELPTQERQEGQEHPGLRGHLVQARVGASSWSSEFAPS
# Experimental: as §1
# Method of studying the A2 receptors Membrane preparation
# After decapitation of the animal, the brain is quickly removed and washed in cold isotonic solution. The two hemispheres are separated and the striatum is removed from each of them (Bruns et al., 1986), weighed and introduced into a polyallomer tube containing 10 volumes of cold homogenization buffer. The tissue is homogenized with an Ultra-Turrax for 30 seconds (3 times 10 seconds with 10-second intervals, 70% of the maximum speed). The ground material is centrifuged at 50,000 g (≈20,500 rpm) for 10 minutes at 4° C.
# The residue obtained is resuspended in 10 volumes of homogenization buffer using a Vortex and homogenized with the Ultra-Turrax (5 to 10 seconds, 70% of the maximum speed).
# Adenosine deaminase is then added at a rate of 1 U/ml, i.e. 1 μl/ml of homogenate, using a 10 μl Hamilton syringe. The homogenate treated in this way is shaken at room temperature for 30 minutes.
# When the incubation is complete, the homogenate is centrifuged at 50,000 g (≈20,500 rpm) for 10 minutes at 4° C.
# The residue is taken up with 5 volumes of cold homogenization buffer and passed through the Ultra-Turrax (2 times 10 seconds with a 10-second interval, 70% of the maximum speed) and the homogenate prepared in this way is finally frozen at -70° C. Competitive test
# After the homogenate has been thawed at room temperature, 15 volumes of incubation buffer are added. The homogenate is shaken on a Vortex, passed through a Potter mill (6 to-and-fro movements, speed 6), diluted to 1/10 in incubation buffer and finally placed in a water bath thermostated at 4° C., with shaking, until the end of the experiment.
# as §2, with “NECA” for “PIA”, “160” for “100”, “4” for “2.5”, “(10^-5” for “(10^-1”, “similar” for “identical”, “compounds” for “beta-blockers”
# as §3, with “25°” for “20°”, “60” for “30”, “buffer before being transferred to counting flasks.” for “buffer.”
# 10 ml of liquid scintillator (Ready Solv HP/b, Beckman) are added to all the flasks. These are shaken and stored in a refrigerator overnight. The radioactivity is determined in a liquid scintillation counter.
# as §4, with “NECA” for “PIA”, “determined” for “assessed”, “5 μM N-ethylcarboxamidoadenosine (NECA).” for “10^-5 M phenylisopropyladenosine (PIA).”
# as §5
SMILES,ED50 [1] [mg/kg],inhibition at 10 µM ([2]; 1E-5M) [%],inhibition at 0.1 µM ([2]; 1E-7M) [%],inhibition at 10 µM ([3]; 1E-5M) [%],inhibition at 0.1 µM ([3]; 1E-7M) [%],"% displacement of the labeled ligand, A1, 1E-5M ([2]; 1E-5M, 10 µM) [%]","% displacement of the labeled ligand, A1, 1E-7M ([2]; 1E-7M, 0.1 µM) [%]","% displacement of the labeled ligand, A2, 1E-5M ([3]; 1E-5M, 10 µM) [%]","% displacement of the labeled ligand, A2, 1E-7M ([3]; 1E-7M, 0.1 µM) [%]"
"O=C(NC1CC1)[C@H]1O[C@@H](n2cnc3c(NCCc4cn(CCN5CCCCC5)c5ccccc45)ncnc32)[C@H](O)[C@@H]1O [Example 71 (citrate), β-D-ribofuranuronamido-N-cyclopropyl-1-deoxy-1-[6-[[2-[1-(2-N-piperidinoethyl)indol-3-yl]ethyl]amino]-9H-purin-9-yl]citrate]",7.3,99,91,96,44,–,–,–,–
"CN(C)CCn1cc(CCNc2ncnc3c2ncn3[C@@H]2O[C@H](C(=O)NC3CC3)[C@@H](O)[C@H]2O)c2ccccc21 [Example 70, β-D-Ribofuranuronamido-N-cyclopropyl-1-deoxy-1-[6-[[2-[1-(2-N,N-dimethylaminoethyl)indol-3-yl]ethyl]amino]-9H-purin-9-yl]]",–,100,91,94,44,–,–,–,–
"O=C(NC1CC1)[C@H]1O[C@@H](n2cnc3c(NCCc4cn(CCN5CCCCC5)c5ccccc45)ncnc32)[C@H](O)[C@@H]1O [Example 71 (base), β-D-Ribofuranuronamido-N-cyclopropyl-1-deoxy-1-[6-[[2-[1-(2-N-piperidinoethyl)indol-3-yl]ethyl]amino]-9H-purin-9-yl]]",–,–,–,–,–,99,94,92,46
"CC(C)n1cc(CCNc2ncnc3c2ncn3[C@@H]2O[C@H](C(=O)NC3CC3)[C@@H](O)[C@H]2O)c2ccccc21 [Example 65, β-D-Ribofuranuronamido-N-cyclopropyl-1-deoxy-1-[6-[[2-[1-isopropylindol-3-yl]-ethyl]amino]-9H-purin-9-yl]]",0.3,87,4,91,14,–,–,–,–
"Cc1ccc(C)c(Cn2cc(CC(C)Nc3ncnc4c3ncn4[C@@H]3O[C@H](C(=O)NC4CC4)[C@@H](O)[C@H]3O)c3ccccc32)c1 (stereo partly drawn) [Example 92, β-D-Ribofuranuronamido-N-cyclopropyl-1-deoxy-1-[6-[[1-[1-(2,5-dimethylbenzyl)indol-3-yl]propan-2-yl]amino]-9H-purin-9-yl]]",3.6,96,21,84,9,–,–,–,–
"COCCn1cc(CCNc2ncnc3c2ncn3[C@@H]2O[C@H](C(=O)NC3CC3)[C@@H](O)[C@H]2O)c2ccccc21 [Example 63, β-D-Ribofuranuronamido-N-cyclopropyl-1-deoxy-1-[6-[[2-[1-(2-methoxyethyl)indol-3-yl]ethyl]amino]-9H-purin-9-yl]]",10,98,61,90,19,–,–,–,–
"COc1ccc2c(c1)c(CCNc1ncnc3c1ncn3[C@@H]1O[C@H](C(=O)NC3CC3)[C@@H](O)[C@H]1O)cn2Cc1cc(C)ccc1C [Example 86, β-D-Ribofuranuronamido-N-cyclopropyl-1-deoxy-1-[6-[[2-[1-(2,5-dimethylbenzyl)-5-methoxyindol-3-yl]ethyl]amino]-9H-purin-9-yl]]",~60,100,16,91,17,–,–,–,–
"CC(Cc1cn(C2CCCC2)c2ccccc12)Nc1ncnc2c1ncn2[C@@H]1O[C@H](C(=O)NC2CC2)[C@@H](O)[C@H]1O (stereo partly drawn) [Example 93, β-D-Ribofuranuronamido-N-cyclopropyl-1-deoxy-1-[6-[[1-[1-cyclopentylindol-3-yl]-propan-2-yl]amino]-9H-purin-9-yl]]",2,96,45,85,22,–,–,–,–
"O=C(NC1CC1)[C@H]1O[C@@H](n2cnc3c(NCCc4cn(CCN5CCOCC5)c5ccccc45)ncnc32)[C@H](O)[C@@H]1O [Example 69, β-D-Ribofuranuronamido-N-cyclopropyl-1-deoxy-1-[6-[[2-[1-(2-N-morpholinoethyl)indol-3-yl]ethyl]amino]-9H-purin-9-yl]]",–,93,63,90,12,–,–,–,–

# Source: patent US5480983A, “Adenosine derivatives, preparation methods and pharmaceutical compositions containing them” (Laboratoires UPSA, priority 1992, dated 1996)
